Assay results taken from US6953779B2, “Melanocortin receptor antagonists and modulations of melanocortin receptor activity” (The Regents of the University of California, priority 1998, dated 2005).
Square brackets hold non-standard residues; d marks the D form. Peptide text beside a SMILES is read from it. * marks the point of attachment. Benzoyl(3-OMe) = COc1cccc(C(=O)*)c1; Benzoyl(4-OMe) = COc1ccc(C(=O)*)cc1; d2Thi = N[C@H](Cc1cccs1)C(=O)O

How the values were obtained:
[1] = test system: heat-induced edema in the anesthetized rat's paw; experiment: Suppression of heat-induced edema in the anesthetized rat's paw (anti-inflammatory); type: in vivo; settings: for Anti-Inflammatory ED50: suppression of heat-induced edema in the anesthetized rat's paw; for anti-edema activity: in words
[2] = target: T1, ACTH (MCR-2) receptor endogenous to murine Y1 adrenocortical cells (Mus musculus, UniProt Q64326); experiment: cAMP concentration-response to ACTH-(1-24) in Y1 cells; type: cell-based
T1 construct: the ACTH (MCR-2) receptor endogenous to murine Y1 adrenocortical cells; endogenous in cells; host or cells: murine Y1 adrenocortical cells
Experimental: (§1) Peptide concentration-response measurements are made in HEK-293 cells by quantifying cAMP levels using a [8-^3H]-CAMP kit from Amersham. Briefly, cells transfected with MC receptors, plated to confluency in 96-well tissue culture plates, are rinsed for 1 hr with 70% (vol/vol) L-15 medium containing 0.5% bovine serum albumin. […] Cellular debris was separated from extracted samples by centrifugation, 400 μL aliquots of the supernatant lyophilized, and total cAMP content quantified by isotope counting.
(§2) Concentration response measurements were made also as described in Example 2, but in Xenopus fibroblasts, COS-7, HEK-293, and Y1 cells.

[3] = test system: atypical MC receptor in Cos-7 cells; experiment: cAMP concentration-response to α-MSH in Cos-7 cells; type: cell-based
Experimental: as §1, §2

[4] = target: T2, MC receptors endogenous to Xenopus melanophores (Xenopus laevis, UniProt A0A1L8GF34); settings: Quillan and Sadée 1997, cited from earlier work
T2 sequence (A0A1L8GF34 1-317): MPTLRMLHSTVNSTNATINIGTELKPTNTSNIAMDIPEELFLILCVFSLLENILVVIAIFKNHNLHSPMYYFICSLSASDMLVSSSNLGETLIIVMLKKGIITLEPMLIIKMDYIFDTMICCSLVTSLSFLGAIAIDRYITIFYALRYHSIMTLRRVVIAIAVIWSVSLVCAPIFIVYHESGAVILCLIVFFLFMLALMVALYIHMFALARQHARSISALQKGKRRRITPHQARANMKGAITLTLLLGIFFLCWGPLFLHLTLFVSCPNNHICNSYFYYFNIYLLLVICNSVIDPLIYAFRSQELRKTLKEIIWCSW

[5] = test system: B16-F1 mouse melanoma cells; settings: Siegrist et al.; read-out: antiproliferative half-maximal effective concentration; cited from earlier work

T1 sequence (Q64326 whole entry): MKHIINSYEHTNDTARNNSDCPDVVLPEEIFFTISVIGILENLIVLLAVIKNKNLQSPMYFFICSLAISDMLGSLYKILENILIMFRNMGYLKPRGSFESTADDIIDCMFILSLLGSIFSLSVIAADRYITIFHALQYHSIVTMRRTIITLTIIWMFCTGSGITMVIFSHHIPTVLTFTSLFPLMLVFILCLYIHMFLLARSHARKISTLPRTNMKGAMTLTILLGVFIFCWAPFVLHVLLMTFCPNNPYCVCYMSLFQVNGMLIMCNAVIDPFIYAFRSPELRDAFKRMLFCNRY
T1 sequence (Q9D159 whole entry partner): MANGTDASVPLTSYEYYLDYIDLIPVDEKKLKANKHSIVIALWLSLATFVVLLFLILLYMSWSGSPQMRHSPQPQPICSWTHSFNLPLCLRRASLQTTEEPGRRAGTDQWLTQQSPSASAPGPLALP

CC[C@H](C)[C@H](NC(=O)[C@@H](Cc1cccs1)NC(=O)[C@H](CC(C)C)NC(=O)[C@H](CC(C)C)NC(=O)[C@H](C)NC(=O)[C@H](CCCNC(=N)N)NC(=O)c1ccc(OC)cc1)C(=O)N[C@H](CC(C)C)C(N)=O [S-166, p-anisoyl-Arg-Ala-Leu-Leu-D-Thi-Ile-D-Leu-NH2] ({Benzoyl(4-OMe)}-RALL[d2Thi]I[dL]-NH2)
Anti-Inflammatory ED50 ([1]; i.v.): >2 mg/kg

CC[C@H](C)[C@H](NC(=O)[C@@H](Cc1cccs1)NC(=O)[C@H](CC(C)C)NC(=O)[C@H](CC(C)C)NC(=O)[C@H](CCCCN)NC(=O)[C@H](C)NC(=O)c1ccc(OC)cc1)C(=O)N[C@H](CC(C)C)C(N)=O [S-167, p-anisoyl-Ala-Lys-Leu-Leu-D-Thi-Ile-D-Leu-NH2] ({Benzoyl(4-OMe)}-AKLL[d2Thi]I[dL]-NH2)
Anti-Inflammatory ED50 ([1]; i.v.): >2 mg/kg

CC[C@H](C)[C@H](NC(=O)[C@H](CCCNC(=N)N)NC(=O)[C@H](CCCNC(=N)N)NC(=O)c1ccc(OC)cc1)C(=O)N[C@H](CCCNC(=N)N)C(=O)N1CCC[C@H]1C(=O)N[C@H](CCCCN)C(=O)N[C@H](CC(C)C)C(N)=O [SQW-2, p-anisoyl-Arg-Arg-Ile-D-Arg-Pro-D-Lys-D-Leu-amide] ({Benzoyl(4-OMe)}-RRI[dR]P[dK][dL]-NH2)
Anti-Inflammatory ED50 ([1]; i): 0.085 µmol/kg

CC[C@H](C)[C@H](NC(=O)[C@@H](CCCNC(=N)N)NC(=O)[C@H](CCCNC(=N)N)NC(=O)c1ccc(OC)cc1)C(=O)N[C@H](CCCNC(=N)N)C(=O)N1CCC[C@H]1C(=O)N[C@H](CCCCN)C(=O)N[C@H](CC(C)C)C(N)=O [SQW-3, p-anisoyl-Arg-D-Arg-Ile-D-Arg-Pro-D-Lys-D-Leu-amide] ({Benzoyl(4-OMe)}-R[dR]I[dR]P[dK][dL]-NH2)
Anti-Inflammatory ED50 ([1]; i): 0.095 µmol/kg

CC[C@H](C)[C@H](NC(=O)[C@@H](CCCNC(=N)N)NC(=O)[C@@H](CCCNC(=N)N)NC(=O)c1ccc(OC)cc1)C(=O)N[C@H](CCCNC(=N)N)C(=O)N1CCC[C@H]1C(=O)N[C@H](CCCCN)C(=O)N[C@H](CC(C)C)C(N)=O [SQW-4, p-anisoyl-D-Arg-D-Arg-Ile-D-Arg-Pro-D-Lys-D-Leu-amide] ({Benzoyl(4-OMe)}-[dR][dR]I[dR]P[dK][dL]-NH2)
anti-edema activity [1]: active as anti-edema agents | Anti-Inflammatory ED50 ([1]; i): 0.200 µmol/kg

CC[C@H](C)[C@H](NC(=O)[C@H](CCCNC(=N)N)NC(=O)[C@@H](CCCNC(=N)N)NC(=O)c1ccc(OC)cc1)C(=O)N[C@H](CCCNC(=N)N)C(=O)N1CCC[C@H]1C(=O)N[C@H](CCCCN)C(=O)N[C@H](CC(C)C)C(N)=O [SQW-5, p-anisoyl-[D-Arg^6,9, D-Lys^11, D-Leu^12] dynorphin A(6-12)-NH2] ({Benzoyl(4-OMe)}-[dR]RI[dR]P[dK][dL]-NH2)
anti-edema activity [1]: active as anti-edema agents | Anti-Inflammatory ED50 ([1]; i): 0.060 µmol/kg

CC[C@H](C)[C@H](NC(=O)[C@H](CCCNC(=N)N)NC(=O)[C@H](CCCNC(=N)N)NC(=O)c1cccc(OC)c1)C(=O)N[C@@H](CCCNC(=N)N)C(=O)N1CCC[C@H]1C(=O)N[C@@H](CCCCN)C(=O)N[C@@H](CC(C)C)C(N)=O [SQW-6, m-anisoyl-Arg-Arg-Ile-Arg-Pro-Lys-Leu-amide] ({Benzoyl(3-OMe)}-RRIRPKL-NH2)
anti-edema activity [1]: active as anti-edema agents | Anti-Inflammatory ED50 ([1]; i): 0.51 µmol/kg

CC[C@H](C)[C@H](NC(=O)[C@H](CCCNC(=N)N)NC(=O)[C@H](C)NC(=O)c1cccc(OC)c1)C(=O)N[C@@H](CCCNC(=N)N)C(=O)N1CCC[C@H]1C(=O)N[C@@H](CCCCN)C(=O)N[C@@H](CC(C)C)C(N)=O [SQW-7, m-anisoyl-Ala-Arg-Ile-Arg-Pro-Lys-Leu-amide] ({Benzoyl(3-OMe)}-ARIRPKL-NH2)
Anti-Inflammatory ED50 ([1]; i): >1 µmol/kg

CC[C@H](C)[C@H](NC(=O)[C@H](C)NC(=O)[C@H](CCCNC(=N)N)NC(=O)c1cccc(OC)c1)C(=O)N[C@@H](CCCNC(=N)N)C(=O)N1CCC[C@H]1C(=O)N[C@@H](CCCCN)C(=O)N[C@@H](CC(C)C)C(N)=O [SQW-8, m-anisoyl-Arg-Ala-Ile-Arg-Pro-Lys-Leu-amide] ({Benzoyl(3-OMe)}-RAIRPKL-NH2)
Anti-Inflammatory ED50 ([1]; i): >1 µmol/kg

COc1cccc(C(=O)N[C@@H](CCCNC(=N)N)C(=O)N[C@@H](CCCNC(=N)N)C(=O)N[C@@H](C)C(=O)N[C@@H](CCCNC(=N)N)C(=O)N2CCC[C@H]2C(=O)N[C@@H](CCCCN)C(=O)N[C@@H](CC(C)C)C(N)=O)c1 [SQW-9, m-anisoyl-Arg-Arg-Ala-Arg-Pro-Lys-Leu-amide] ({Benzoyl(3-OMe)}-RRARPKL-NH2)
Anti-Inflammatory ED50 ([1]; i): 0.65 µmol/kg

CC[C@H](C)[C@H](NC(=O)[C@H](CCCNC(=N)N)NC(=O)[C@H](CCCNC(=N)N)NC(=O)c1cccc(OC)c1)C(=O)N[C@@H](C)C(=O)N1CCC[C@H]1C(=O)N[C@@H](CCCCN)C(=O)N[C@@H](CC(C)C)C(N)=O [SQW-10, m-anisoyl-Arg-Arg-Ile-Ala-Pro-Lys-Leu-amide] ({Benzoyl(3-OMe)}-RRIAPKL-NH2)
Anti-Inflammatory ED50 ([1]; i): 1.02 µmol/kg

CC[C@H](C)[C@H](NC(=O)[C@H](CCCNC(=N)N)NC(=O)[C@H](CCCNC(=N)N)NC(=O)c1cccc(OC)c1)C(=O)N[C@@H](CCCNC(=N)N)C(=O)N[C@@H](C)C(=O)N[C@@H](CCCCN)C(=O)N[C@@H](CC(C)C)C(N)=O [SQW-11, m-anisoyl-Arg-Arg-Ile-Arg-Ala-Lys-Leu-amide] ({Benzoyl(3-OMe)}-RRIRAKL-NH2)
Anti-Inflammatory ED50 ([1]; i): 1.05 µmol/kg

CC[C@H](C)[C@H](NC(=O)[C@H](CCCNC(=N)N)NC(=O)[C@H](CCCNC(=N)N)NC(=O)c1cccc(OC)c1)C(=O)N[C@@H](CCCNC(=N)N)C(=O)N1CCC[C@H]1C(=O)N[C@@H](C)C(=O)N[C@@H](CC(C)C)C(N)=O [SQW-12, m-anisoyl-Arg-Arg-Ile-Arg-Pro-Ala-Leu-amide] ({Benzoyl(3-OMe)}-RRIRPAL-NH2)
Anti-Inflammatory ED50 ([1]; i): 0.98 µmol/kg

CC[C@H](C)[C@H](NC(=O)[C@H](CCCNC(=N)N)NC(=O)[C@H](CCCNC(=N)N)NC(=O)c1cccc(OC)c1)C(=O)N[C@@H](CCCNC(=N)N)C(=O)N1CCC[C@H]1C(=O)N[C@@H](CCCCN)C(=O)N[C@@H](C)C(N)=O [SQW-13, m-anisoyl-Arg-Arg-Ile-Arg-Pro-Lys-Ala-amide] ({Benzoyl(3-OMe)}-RRIRPKA-NH2)
Anti-Inflammatory ED50 ([1]; i): 2.39 µmol/kg

CC[C@H](C)[C@H](NC(=O)[C@H](CCCNC(=N)N)NC(=O)[C@H](CCCNC(=N)N)NC(=O)[C@H](CC(C)C)NC(=O)[C@H](Cc1ccccc1)NC(=O)CNC(=O)CNC(=O)[C@@H](N)Cc1ccc(O)cc1)C(=O)N[C@@H](CCCNC(=N)N)C(=O)N1CCC[C@H]1C(=O)N[C@@H](CCCCN)C(=O)N[C@@H](CC(C)C)C(=O)N[C@@H](CCCCN)C(N)=O [dynorphin A(1-13)-NH2]
effect on basal or forskolin (3 μM) stimulated cAMP production ([2]; Y1 cells): did not significantly affect | shift of the concentration-response curve of ACTH-(1-24) to the right ([2]; Y1 cells, 30 μM): ~200 fold | estimated Kd ([2]; from shift in the ACTH concentration-response curve): submicromolar range | shift of α-MSH EC50 ([3]; 30 μM): ~50 fold | Kd ([3]; read-out: K4): ~1000 nM

CC[C@H](C)[C@H](NC(=O)[C@@H](Cc1cccs1)NC(=O)[C@H](CC(C)C)NC(=O)[C@H](CC(C)C)NC(=O)[C@H](CCCCN)NC(=O)[C@H](CCCNC(=N)N)NC(=O)c1ccc(OC)cc1)C(=O)N[C@H](CC(C)C)C(N)=O [mystixin-7, p-anisoyl-Arg-Lys-Leu-Leu-D-Thi-Ile-D-Leu-NH2] ({Benzoyl(4-OMe)}-RKLL[d2Thi]I[dL]-NH2)
Anti-Inflammatory ED50 ([1]; i.v.): 0.02 (0.014-0.059) mg/kg

Dynorphin A(2-17) [reference compound]
anti-edema activity [1]: at least twice more active | IC50 ([4]; against 600 pM α-MSH): 190 nM

Dynorphin A(6-17)
antagonist activity [4]: inactive

α-MSH
stimulating cAMP accumulation in Y1 cells ([2]; up to concentrations of 10 μM): not effective | EC50 ([3]; read-out: EC50 of α-MSH for cAMP production): ~80 nM

B1: ASP: agouti-signaling protein, MCR antagonist elaborated by hair follicle melanocytes (protein, UniProt P42127 23-132, looked up)
Agouti-signaling protein: HLPPEEKLRDDRSLRSNSSVNLLDVPSVSIVALNKKSKQIGRKAAEKKRSSKKEASMKKVVRPRTPLSAPCVATRNSCKPPAPACCDPCASCQCRFFRSACSCRVLSLNC
EC50 [5]: 13 nM
